Here are results for 1 compound from PMC8880385 (Pharmaceuticals, 2022).

One series has as its system O. ochengi adult males. The experiment in a line: O. ochengi adult male motility assay. It is filed as cell-based. As to conditions: Onchocerca ochengi, 120 h; read-out: O. ochengi Adult Males Inhibition of Motility Day 5 IC50. From the text:
(§1) As humans are the only hosts for O. volvulus which are unavailable for screening, drug discovery relies on the surrogate filarial parasites Brugia spp. and cattle Onchocerca spp. Prioritized compounds from the Brugia worm screens were further tested with female and male adult O. ochengi as well as O. ochengi and L. loa mf.
(§2) For these assays, O. ochengi adults were extracted from the subcutaneous nodules of infected cow skins purchased from the local slaughterhouse (Douala, Littoral Region, Cameroon) and incubated in 4 mL complete culture media comprised of RPMI-1640 (Sigma-Aldrich), 5% newborn calf serum, 200 units/mL penicillin, 200 μg/mL streptomycin and 2.5 μg/mL amphotericin B (Sigma-Aldrich) in 12-well plates overnight to validate sterility prior to the assays. Four to eight O. ochengi adult masses were treated individually the following day with a serial dilution of each compound, and controls were treated with 1% DMSO. While in culture, the male worms normally egress from the nodules into the surrounding media and thus can be monitored in parallel for motility. The O. ochengi adult masses were incubated at 37 °C with 5% CO2 for the duration of the assay. Male motility within each well was visually scored every day and over 5 days after compound addition, and female viability within the nodules was assessed by MTT after 7 days as previously described. The O. ochengi adult masses containing female worms were individually placed in wells of a 48-well plate with 0.5 mL of 0.5 mg/mL MTT in PBS and incubated at 37 °C for 30 min. Female viability was visually rated by the degree of formazan production (live worms have blue coloration) in the female worm within the treated nodule versus control worm masses. […] Prism 4.0 for Windows was used to calculate IC50s.

In another series the test system is Brugia pahangi. The experiment in a line: Brugia pahangi/gerbil model of infection: worm and peritoneal mf counts at necropsy. The format is in vivo. As to conditions: gerbil, 1 mg/kg IP once a day for 5 days, necropsy 13 weeks post-first dose; mean (SEM). Here is the method:
Male Mongolian gerbils 50–60 g, 5–7 weeks in age (Meriones unguiculatus, Charles River Laboratories International, Inc., Wilmington, MA, USA) were injected intraperitoneally (IP) with 200 third-larval stage B. pahangi and treated a minimum of 3 months later when larvae developed into adult worms.
Animals were given IP doses of 1 mg/kg once a day for 5 days based on in vivo studies by Jones et al., 2009 [14] and gerbil PK analyses. Compounds are light sensitive and were shielded from light during formulation. Animals were necropsied 13 weeks post-first dose, and peritoneal cavities were washed with 100 mL of PBS to collect adult worms and mf that had been released from female worms. Adult worms were separated by sex, counted, and processed for subsequent analyses. Mf from the peritoneal cavities were quantified by mixing peritoneal wash 9:1 (v/v) with 0.04% methylene blue:water and counted using an inverted microscope.
Worm burden, peritoneal mf counts, overnight mf sheds and qPCR data were analyzed using a Kruskal–Wallis test followed by Dunn’s multiple comparison. To determine significant differences in embryograms, a two-way ANOVA was conducted with a Dunnett’s multiple comparisons test, and significance levels were determined based on comparisons with vehicle treated animals. All statistical analyses were determined using Prism 8 version 8.2.0(272).

The subject of a further series is O. ochengi adult females. The experiment in a line: O. ochengi adult female viability (MTT) assay. It is filed as cell-based. Particulars: Onchocerca ochengi, 168 h; Day 7, MTT; read-out: O. ochengi Adult Females Inhibition of Survival Day 7 IC50.
Description: as §1
as §2, with “min.” for “min. Female viability was visually rated by the degree of formazan production (live worms have blue coloration) in the female worm within the treated nodule versus control worm masses.”

In the next series the test system is O. ochengi mf. Description: O. ochengi microfilariae motility assay. It is filed as cell-based, Onchocerca ochengi. Particulars: Onchocerca ochengi, 120 h; 10 µM, Day 5. Here is the method: (§3) To assess the effects of the compounds on O. ochengi mf, the mf were harvested from infected cow skin and cultured (10–15 mf per well) in 100 µL media in 96-well plates with a confluent feeder layer of monkey kidney epithelial cells (MK2) as previously described. […] All compounds were also counter-screened with L. loa mf collected from infected individuals with approval from the University of Buea (IRB approval # 964-19). Mf were separated from blood cells using a Percoll gradient as previously described and set up for assays (10–15 mf per well).

Series [1] has as its system Brugia pahangi adult females. Description: Transmission electron microscopy of B. pahangi adult females from treated gerbils. The format is in vivo. As to conditions: females from gerbils treated with 1 mg/kg. Here is the method:
B. pahangi adult females recovered from gerbils treated with 1 mg/kg THP and analog 06 were prepared as above except worms were cut into approximately 5 mm long pieces taken from the center of the worm. Pieces were washed for one hour in 0.1 M sodium cacodylate followed by post-fixation in 1% osmium tetroxide for 1 h and again washed in the same buffer for another hour. Sample pieces were dehydrated using an increasing concentration of ethanol and resin (Durcupan, by Fluka) and transitioned using propylene oxide. Samples were left overnight in pure resin at 4 °C. Samples pieces were embedded using Beem capsules (Electron Microscopy Sciences) and cured at 60 °C overnight. All reagents were purchased from Electron Microscopy Sciences.
Blocks were trimmed and sectioned using a diamond knife on a Sorvall MT-6000 ultramicrotome, collected on formvar coated 1 mm slot grids and contrasted using uranyl acetate and lead citrate. Grids were imaged on a Philips CM100 transmission electron microscope at 80 kV and images were collected using a Gatan Orius imaging system.

The nature of a further series: in vitro. As to conditions: dog, MDCK-MDR1. The method, then:
Permeability assays were conducted using 5 µM of each test compound with digoxin as a control. […] electrical resistance was used to verify the integrity of the MDCK-MDR1 monolayer. After compound addition, plates were incubated at 37 °C with 5% CO2 for 1 h. Samples were analyzed by LC–MS/MS and net flux ratio was calculated using basal-to-apical and apical-to-basal permeability.

The subject of another series is Loa loa mf. The experiment in a line: Loa loa microfilariae motility counter-screen. The format is cell-based. As to conditions: Loa loa, 120 h, Day 5. The method, then:
as §3
Background: The purpose of a counterscreen is to sort out artefacts and off-target activity.

Series [2] deals with Brugia pahangi adult females. Description: In vitro motility assay with adult female Brugia pahangi (Worminator).

Turning to `Cc1ccc2c(ccc(/C=C/c3c(C)nn(-c4ccccc4)c3C)[n+]2C)c1.[I-]` [Analog 06, 2-[(E)-2-(3,5-dimethyl-1-phenyl-1H-pyrazol-4-yl)ethenyl]-1,6-dimethylquinolin-1-ium iodide], the IC50 (usually the midpoint of a concentration-inhibition curve) in the series with O. ochengi adult males was determined as 2.75 µM. Moreover, in the series with Brugia pahangi, the “Adult worms per animal” value was 31.3 (11.8), the “Female worms per animal” value is reported as 15.9 (5.7), the “Male worms per animal” value is reported as 15.4 (6.1) and the “Mf per animal (peritoneal cavity)” value is recorded as 915,000 (263,235). The IC50 in the series on O. ochengi adult females was 2.99 µM. For the same compound, in the series on O. ochengi mf, the inhibition (in general, the share of the control response that was lost under treatment) at 10 µM stood at 46%. In addition, the “Ultrastructure of gonads / developing microfilariae of female worms (TEM)” value in series [1] (1 mg/kg) was “more severe effect on the gonads”. In addition, in series [1] (listed as 06, 1 mg/kg), the “Ultrastructure of gonads / developing microfilariae of female worms (TEM)” value is given as “abnormal ultrastructural phenotypes”. In “in vitro”, the apparent permeability from apical to basolateral (Papp A→B) (in general, the apparent permeability from the apical to the basolateral side of a cell layer) was 0.5 ×10⁻⁶ cm/s and the Papp B→A (usually the apparent permeability from the basolateral to the apical side of a cell layer) was 12.1 ×10⁻⁶ cm/s. Further, in the series on Loa loa mf, the inhibition at 10 µM turned out to be 88%. The “Brugia Adult Females Inhibition of Motility Day 3 @ 1 µM” value in series [2] (1 µM, Day 3, 1 µM) came to 71%. Moreover, the inhibition at 1 µM in series [2] (Brugia pahangi, 72 h, read-out: Brugia Adult Females Inhibition of Motility Day 3 @ 1 µM, 1 µM, Day 3) is > 70%. Further, in series [2] (Brugia pahangi, 72 h, read-out: Brugia Adult Females Inhibition of Motility Day 3 IC50), the IC50 was 0.733 µM. Besides, the “Brugia Adult Females Inhibition of Motility Day 3 IC50” value in series [2] (Day 3) is “sub-micromolar range”.
